Measured values from patent US20070056361A1, “Partitioning gas tracer tests” (UNIVERSITY OF DELAWARE office of the Vice Provost for …, priority 2003, published 2007).
Read-outs that look alike come from different tables or passages of the source. Marks after values point to notes of the source that are not given here. Each block holds one compound with its values, some of them ahead of it.

Experiments:
[1] = Henry's law constant in batch systems from 4° C. to 50° C.; format: physicochemical
Experimental: Difluoromethane was selected as the partitioning tracer, which partitions into water within the solid waste, while helium was selected as the conservative tracer. A key thermodynamic parameter necessary for interpretation of data from a PGTT is the Henry's law constant of the partitioning tracer. Laboratory tests were conducted in batch systems to determine the Henry's law constant for difluoromethane from 4° C. to 50° C., which covers the temperature range observed in our field tests. In addition, batch experiments were also conducted with filter paper wetted to different degrees to assess the ability of PGTT to measure water in small pores and sorbed to solid surfaces.

[2] = Henry's law constant from gas tracer tests in sand column wetted with distilled water; format: physicochemical; settings: distilled water at 22.5-24.1° C., six trials, ± 95% confidence interval
Description: The experimental procedure used to determine KH was similar to that reported in an earlier study (Deeds, N. E.; McKinney, D. C.; Pope, G. A.; Whitely Jr., G. A. Difluoromethane as partitioning tracer to estimate vadose water saturations. Journal of Environmental Engineering 1999, 125, 630-633). A jacketed glass column 60-cm long and 5-cm in diameter (Ace Glass, Inc., Vineland, N.J.) was packed with 50/70 silica sand (d50=0.26 mm, uniformity index=1.186; U.S. Silica, Ill.) underwater using distilled water. The column was positioned vertically, and suction was applied to the bottom of the column to drain water from the porous medium. […]
A water bath and pump were used to recirculate water in the glass jacket surrounding the porous medium to maintain fluid and gas temperatures between 22.5-24.1° C. during the experiments. […] Tracer concentrations in the gas samples were quantified with a gas chromatograph (Model 8610C, SRI Instruments, Torrance, Calif.): tracers were separated using mol-sieve and silica gel packed columns and then detected with a thermal conductivity (helium) or flame ionization detector (difluoromethane). […]
The Henry's law constant was determined in each of the above tests using the tracer breakthrough curves and the known porosity and water saturation for the porous medium. […]

[3] = Henry's law constant from gas tracer tests in sand column wetted with landfill leachate; format: physicochemical
Experimental: Three trials were performed to determine KH for the leachate. The experimental procedures were modified slightly from those described above for distilled water. Here, the column was packed with dry sand, purged with nitrogen, and the leachate was flushed upward in the vertically-mounted column to displace the gas. Nitrogen was then injected into the top of the column to force the mobile water out of the column. This procedure allowed the column to be wetted with the leachate while under anaerobic conditions. Between experimental trials anaerobic conditions were maintained in the column to minimize reactions within the leachate that might alter its composition. The temperatures for the leachate tests ranged between 25.5-26.0° C.
The Henry's law constant was determined in each of the above tests using the tracer breakthrough curves and the known porosity and water saturation for the porous medium. Time moment analysis was used to determine the mean tracer velocities; Rf was computed from eq. 1; and using known n and Sw, KH was computed from eq. 3.
Three PGTT were conducted with landfill leachate to explore the influence of leachate composition on difluoromethane partitioning. The porosity and leachate saturation of the sand column were n=0.41 and Sw=0.17 respectively, while the average interstitial gas velocity used in the tracer tests was 25.2 m/day. […]

[4] = measured at 25° C. (Worksafe Australia); cited from earlier work
[5] = clean water, Deeds et al. 1999; cited from earlier work
[6] = at 25° C., gas/water, cited from earlier work
[7] = for every 10° C. increase in temperature; cited from earlier work

- KH (Henry's law constant) ([1]; at 4° C.): 0.34
- KH (Henry's law constant) ([1]; at 50° C.): 0.99
- KH (dimensionless Henry's law constant) [2]: 0.47^b
- KH (dimensionless Henry's law constant) ([2]; listed as difluoromethane): 0.47±0.07
- KH (Henry's law constant) ([3]; landfill leachate (Cherry Island Landfill), 25.5-26.0° C., three trials, ± 95% confidence interval): 0.57±0.09
- Increase of KH in leachate relative to distilled water ([3]; leachate vs distilled water, mean temperature about 2.5° C. higher): 20%
Structure (SMILES): FCF [Difluoromethane]
- Log n-Octanol/Water Partition Coefficient [4]: 0.21^c
- KH (Henry's law constant) [5]: 0.59

Structure (SMILES): [He] [Helium]
- KH (dimensionless Henry's law constant) [6]: 106^a
- KH (dimensionless Henry's law constant) ([6]; listed as helium): ≈ 100

Structure (SMILES): CF [fluoromethane]
- Increase in KH with temperature [7]: approximately 20%
